# Data published in patent publication US10920265B2, “Compounds and methods for detection of enzymes that remove methyl succinyl groups from epsilon-amino lysine moieties” (Enzo Life Sciences, Inc., priority 2011, dated 2021).
# Assays:
# Type in all cases: biochemical
# SIRT5 [1] = molecular target: T1, SIRT5 (Homo sapiens, UniProt Q9NXA8); experiment: SIRT5 desuccinylation/deacetylation of fluorogenic lysyl substrates, trypsin developer; parameters: purchased Enzo Life Sciences BML-SE555
# T1 sequence (Q9NXA8 37-310): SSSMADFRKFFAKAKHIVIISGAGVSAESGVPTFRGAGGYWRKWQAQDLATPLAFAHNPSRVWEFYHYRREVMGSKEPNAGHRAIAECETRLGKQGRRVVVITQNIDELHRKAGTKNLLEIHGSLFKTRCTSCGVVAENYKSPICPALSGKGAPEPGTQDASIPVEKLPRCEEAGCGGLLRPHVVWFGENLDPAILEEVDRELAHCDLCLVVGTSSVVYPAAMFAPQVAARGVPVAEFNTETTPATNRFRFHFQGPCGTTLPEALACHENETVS
# Method: FIG. 3 is graphs showing that SIRT5 catalyzes NAD^+-dependent desuccinylation of Ac-Lys(ε-succinyl)-AMC far more efficiently than NAD^+-dependent deacetylation of Ac-Arg-His-Lys-Lys(ε-acetyl)-AMC. Fifty μl reactions in Assay Buffer (50 mM Tris/HCl, pH 8.0, 137 mM NaCl, 2.7 mM KCl, 1 mM MgCl2, 1 mg/ml BSA) included 50 μM of either Ac-Lys(ε-succinyl)-AMC or Ac-Arg-His-Lys-Lys(ε-acetyl)-AMC, and, where indicated, 500 μM NAD^+ and 5 μg recombinant human SIRT5 (Enzo Life Sciences Cat. # BML-SE555). […] AMC fluorescence was read in a Cytofluor II plate-reading fluorimeter (Perseptive Biosystems) at wavelengths 360 nm (excitation)/460 nm (emission), Gain 54. Data represent the mean of two (No Enzyme) or three (+SIRT5) determinations and error bars the standard deviations. Panels A and B present the same data, but with the +SIRT5/+NAD^+/Ac-Lys(ε-succinyl)-AMC bar omitted from B to show the detail on the remaining bars. Statistically significant differences (Student's t-test) are indicated by asterisks as follows: *: p<0.02 vs. corresponding No Enzyme control; **: p<0.001 vs. corresponding −NAD^+ control; ***: p<3×10^−6 vs. both No Enzyme and −NAD^+ controls.
# FIG. 4 is a graph showing that Ac-Lys(Succ.)-AMC enables SIRT5 assay at low enzyme concentrations. Fifty μl reactions in Assay Buffer (50 mM Tris/HCl, pH 8.0, 137 mM NaCl, 2.7 mM KCl, 1 mM MgCl2, 1 mg/ml BSA) included 2 or 10 μM Ac-Lys(ε-succinyl)-AMC, 500 μM NAD^+ and, where indicated, 5 ng recombinant human SIRT5 (Enzo Life Sciences Cat. # BML-SE555). […] AMC fluorescence was read in a Synergy 2 plate-reading fluorimeter (BioTek) at wavelengths 360 nm (excitation)/460 nm (emission), Gain 40. Data represent the mean of two (No Enzyme) or three (5 ng SIRT5) determinations and error bars the standard deviations. Statistically significant differences (Student's t-test) are indicated by asterisks as follows: *: p=0.002; **: p=0.009, each with respect to the corresponding “No SIRT5” samples.
# FIG. 5 is graphs showing dependence of SIRT5 initial rate kinetics on the concentrations of Ac-Lys(Succ.)-AMC and Ac-Lys(Ac.)-AMC. Fifty μl desuccinylation or deacetylation reactions were performed as described earlier (FIG. 4), with the indicated concentrations of Ac-Lys(Succ.)-AMC or Ac-Lys(Ac.)-AMC and 1 mM NAD^+, for 20 min. at 37° C. Reactions with Ac-Lys(Succ.)-AMC contained 10 ng SIRT5 and those with Ac-Lys(Ac.)-AMC contained 5 SIRT5. Reactions were stopped and AMC cleaved from deacetylated or desuccinylated substrate by trypsin treatment as described earlier (FIG. 4). AMC fluorescence was read in a Synergy 2 plate-reading fluorimeter (BioTek) at wavelengths 360 nm (excitation)/460 nm (emission), Gain 40. Data represent the mean of the differences of three determinations with enzyme (10 ng or 5 SIRT5) from the mean of two no enzyme samples for each substrate concentration. Error bars are the standard deviations from those means. Fluorescence differences were converted to specific activities (pmol/min/μg) by measuring the fluorescence increase due to the addition a standard solution of AMC (5 μl of a […]).
# FIG. 6 is a graph showing the dependence of SIRT5 initial rate kinetics of Ac-Lys(Succ.)-AMC desuccinylation on the concentration of NAD^+. Reaction conditions were as described for FIG. 5 but with a constant Ac-Lys(Succ.)-AMC concentration of 0.5 mM and the indicated concentrations of NAD^+. Data analysis and determination of kinetic parameters were as described (FIG. 5).
# FIG. 12 is graphs showing that SIRT5 catalyzes NAD^+-dependent desuccinylation of (Ac-Lys(Succ.))2-R110 far more efficiently than NAD^+-dependent deacetylation of (Ac-Lys(Ac.))2-R110. Fifty μl reactions in Assay Buffer (50 mM Tris/HCl, pH 8.0, 137 mM NaCl, 2.7 mM KCl, 1 mM MgCl2, 1 mg/ml BSA) included 50 μM of either (Ac-Lys(Succ.))2-R110 or (Ac-Lys(Ac.))2-R110, and, where indicated, 500 μM NAD^+ and 5 μg recombinant human SIRT5 (Enzo Life Sciences Cat. # BML-SE555). […]
# SIRT5 [2] = molecular target: T1, SIRT5; experiment: Inhibition of SIRT5 desuccinylation of Ac-Lys(Succ.)-AMC; parameters: purchased Enzo Life Sciences BML-SE555; conditions: three parameter Hill-Slope model, bottom fixed at 0
# Source text: Signal development (trypsin treatment) and fluorescence readings were done as described, as were the conversion of fluorescence increases to rates in units of pmol/min/μg (FIG. 5). Data points represent the mean of three determinations and the error bars are the standard deviations from those means. The dose-response curve was derived from a least-squares fit to a three parameter Hill-Slope model (bottom fixed at 0 pmol/min/μg), y=top/(1+(x/IC50)^slope).
# Data points represent the mean of three determinations and the error bars are the standard deviations from those means. The dose-response curve was derived from a least-squares fit to a three parameter Hill-Slope model (bottom fixed at 0 pmol/min/μg), y=top/(1+(x/IC50)^slope).
# (§1) Assays were performed at 37° C., according to the manufacturer's instructions for the “SIRT1 Fluorometric Drug Discovery Kit” from Enzo Life Sciences (ELS) (Cat. # BML-AK555), with exceptions described as follows. Where indicated in figures and text, SIRT1 enzyme was replaced with another enzyme or extract and the “Fluor de Lys-SIRT1 Substrate” (Ac-Arg-His-Lys-Lys(Ac)-AMC; ELS Cat. # BML-KI-177) was replaced with another acetylated, succinylated or trifluoroacetylated substrate.
# HDAC2 = molecular target: T2, HDAC2 (Homo sapiens, UniProt Q92769); experiment: HDAC activity with fluorogenic lysyl substrates; conditions: 50 μM substrate
# T2 construct: purchased ENZO Life Sciences BML-SE500
# T2 sequence (Q92769 whole entry): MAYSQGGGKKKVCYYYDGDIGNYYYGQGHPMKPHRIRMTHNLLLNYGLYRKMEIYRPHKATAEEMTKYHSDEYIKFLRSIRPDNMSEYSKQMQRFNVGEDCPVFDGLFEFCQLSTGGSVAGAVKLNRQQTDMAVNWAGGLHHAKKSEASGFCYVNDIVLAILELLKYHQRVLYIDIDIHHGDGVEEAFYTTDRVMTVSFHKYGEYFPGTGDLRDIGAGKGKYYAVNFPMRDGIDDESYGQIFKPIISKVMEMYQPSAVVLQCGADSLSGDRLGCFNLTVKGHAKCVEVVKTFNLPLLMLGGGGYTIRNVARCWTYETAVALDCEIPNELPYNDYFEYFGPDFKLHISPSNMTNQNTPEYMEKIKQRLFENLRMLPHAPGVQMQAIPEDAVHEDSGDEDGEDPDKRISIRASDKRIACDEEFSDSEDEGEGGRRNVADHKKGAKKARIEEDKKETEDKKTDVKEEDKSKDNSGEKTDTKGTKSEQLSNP
# Method: The Ac-Lys(Succ.)-AMC substrate was tested for activity with recombinant preparations of human HDACs 1-11, SIRTs 1-4, 6 and 7, a complex of HDAC3 with a fragment of the activating protein NCOR1 and with HeLa nuclear extract, a rich source of active HDACs in their native multiprotein complexes.
# Enzyme and extract catalog products obtained from ENZO Life Sciences included: HDAC1 (Cat. # BML-SE456), HDAC2 (Cat. # BML-SE500), HDAC3 (Cat. # BML-SE507), HDAC3/NCOR1 Complex (Cat. # BML-SE515), HDAC6 (Cat. # BML-SE508), HDAC8 (Cat. # BML-SE145), HDAC10 (Cat. # BML-SE559), HDAC11 (Cat. # BML-SE560), SIRT1 (Cat. # BML-SE239), SIRT2 (Cat. # BML-SE251), SIRT3 (Cat. # BML-SE270), SIRT5 (Cat. # BML-SE555), HeLa Nuclear Extract (Cat. # BML-KI140), Trypsin (“Fluor de Lys Developer”, 80 mg/ml bovine trypsin in 1 mM HCl, Cat. # BML-KI105 or “Fluor de Lys Developer II”, 80 mg/ml bovine trypsin in 1 mM HCl, Cat. # BML-KI176). […] Enzymes obtained from BPS Bioscience, San Diego, Calif. included: human recombinants SIRT4 (Cat. #50015), SIRT6 (Cat. #50017), SIRT7 (Cat. #50018). HeLa whole cell extract was obtained from HeLa S3 cells (American Type Culture Collection) grown in a medium of MEM/10% fetal bovine serum (FBS) as follows: 1) 9×10^6 cells were suspended by trypsinization, followed by a phosphate buffered saline (PBS) rinse and addition of MEM/10% FBS (1.5 mL) to eliminate trypsin before transfer to a 15 mL conical tube; 2) cells were sedimented by a low speed centrifugation, gently resuspended in PBS and sedimented again and supernatant removed; 3) lysis was induced by resuspension in 0.8 mL 50 mM Tris/HCl, pH 8.0 with the non-denaturing detergent NP-40 (0.5%), placement on ice and brief vortexing every 5 min. for 30 min.; 4) 100 μl of a concentrated salt solution in the same buffer was added in order to bring the final buffer composition to 50 mM Tris/C1, pH 8.0, 137 mM NaCl, 2.7 mM KCl, 1 mM MgCl2, 0.5% NP-40; 5) particulate matter was cleared by centrifugation and the cleared lysate supernatant transferred to a 1.5 mL Eppendorf tube and stored on ice until use in activity assays.
# as §1
# [3] = molecular target: T3, bovine pancreatic trypsin (Bos taurus, UniProt P00760); experiment: Trypsin release of AMC from lysyl-AMC compounds; conditions: 1 μM compound, trypsin 2 mg/ml, room temperature
# T3 construct: purchased ENZO Life Sciences BML-KI105 or BML-KI176; host or cells: bovine pancreas
# T3 sequence (P00760 24-246): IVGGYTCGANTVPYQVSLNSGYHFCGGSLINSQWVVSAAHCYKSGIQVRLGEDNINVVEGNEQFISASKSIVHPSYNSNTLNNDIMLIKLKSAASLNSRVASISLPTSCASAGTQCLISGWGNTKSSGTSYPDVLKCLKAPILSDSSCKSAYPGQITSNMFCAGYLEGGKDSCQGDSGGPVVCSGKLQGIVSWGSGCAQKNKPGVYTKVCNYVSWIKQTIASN
# Method: FIG. 2 is a graph showing that trypsin treatment releases fluorescent AMC from Ac-Lys-AMC but not Ac-Lys(Succinyl)-AMC. Samples (100 μl) of 1 μM Ac-Lys-AMC and 1 μM Ac-Lys(Succinyl)-AMC in a buffered solution (50 mM Tris/HCl, pH 8.0, 137 mM NaCl, 2.7 mM KCl, 1 mM MgCl2) were treated with bovine pancreatic trypsin (2 mg/ml) for the indicated times at room temperature. Samples were in the wells of a 96-well, ½-area white microplate and fluorescence was measured at 1 min. intervals at the excitation and emission wavelengths for free AMC (Excitation: 360 nm; Emission: 460 nm) in a Synergy 2 microplate reading fluorimeter (BioTek), Gain 40. The data points at 0 min. represent the fluorescence of equivalent 1 μM Ac-Lys(Succ.)-AMC and 1 μM Ac-Lys-AMC samples in the absence of trypsin.
# As noted in the Background of the Invention section above, the protease trypsin catalyzes the hydrolytic cleavage of amide bonds on the carboxyl side of unmodified lysine residues. Hydrolytic cleavage of lysyl amide bonds with AMC or rhodamine 110 (dye components of Compounds 1 and 2, respectively) releases the free amino forms of the dyes. This elicits an upward shift of the dye's fluorescence emission peak wavelength (bathochromic shift), for example to 460 nm for AMC or 530 nm for rhodamine 110. If succinylation of the ε-amino function of the lysine moieties in compounds such as 1 and 2 renders the amide bond between the carbonyl of lysine and the amino of dye groups such as AMC or rhodamine resistant to trypsin cleavage then, upon desuccinylation, the lysine/dye amide bond would become cleavable by trypsin. Note that removal of a single succinyl group from 2, followed by cleavage of the desuccinylated lysine would yield a compound with a single free amino function, Ac-K(Succ.)-R110. Monoamides of rhodamine 110 also have increased fluorescence emission at 530 nm relative to 2, although they are less fluorescent than rhodamine 110 itself (Liu et al., 1999). Thus, monitoring the fluorescence at the peak wavelength of the amino form of the dye would allow the desuccinylation reaction to be quantified. A schematic for such an assay is depicted for Compound 1 and SIRT5 in FIG. 1. Trypsin treatment (2 mg/ml) elicits an immediate increase in the fluorescence of a solution of Ac-Lys-AMC (Compound 6—FIG. 1) at the excitation and emission wavelengths of free AMC (Ex. 360 nm; Em. 460 nm), with maximum fluorescence achieved in 2 min. or less and ˜⅔ of that maximum occurring in 1 min. (FIG. 2).
smiles,measurement,setting,value
"CC(=O)NC(CCCCNC(=O)CCC(=O)O)C(=O)Nc1ccc2c(c1)Oc1cc(NC(=O)C(CCCCNC(=O)CCC(=O)O)NC(C)=O)ccc1C21OC(=O)c2ccccc21 (stereo not drawn) [Compound 2, N,N′-Bis(α-acetyl-Lysine(ε-succinyl))-rhodamine 110]",SIRT5/NAD^+ dependence of desuccinylation,"SIRT5 [1]; 5 μg SIRT5, 50 μM substrate, 500 μM NAD^+, 60 min.",desuccinylated by SIRT5 in a time and NAD^+-dependent manner
NC(=O)c1ccc[n+]([C@@H]2O[C@H](COP(=O)([O-])OP(=O)(O)OC[C@H]3O[C@@H](n4cnc5c(N)ncnc54)[C@H](O)[C@@H]3O)[C@@H](O)[C@H]2O)c1 [NAD^+],Km,"SIRT5 [1]; varied substrate: NAD^+, constant 0.5 mM Ac-Lys(Succ.)-AMC",360 µM
NC(=O)c1cccnc1 [nicotinamide],slope (fitted parameter of dose-response curve),SIRT5 [2],0.98
same,top (fitted parameter of dose-response curve),SIRT5 [2],90.2 pmol/min/µg
"CC(=O)NCCCCC(NC(C)=O)C(=O)Nc1ccc2c(c1)Oc1cc(NC(=O)C(CCCCNC(C)=O)NC(C)=O)ccc1C21OC(=O)c2ccccc21 (stereo not shown) [(Ac-Lys(Ac))2-R110, reference compound]",Activity (pmol/min/μg),HDAC2,(Ac-Lys(Ac))2-R110/502 pmol/min/μg
"CC(=O)N[C@@H](CCCCN)C(=O)Nc1ccc2c(C)cc(=O)oc2c1 [Compound 6, N-(α-acetyl-Lysine)-AMC, reference compound]",Fraction of maximum fluorescence at 1 min.,[3],⅔
same,Time to maximum fluorescence on trypsin treatment,[3],≤ 2 min
